Where two headings read alike, the source gives them in different places.
Key:
Assay type in all cases: biochemical
[1] = system: β-galactosidase of Bacillus stearothermophilus HRI strains, whole cell suspension; experiment: β-galactosidase assay, toluene-treated whole cell suspension, ONPG or lactose as substrate; conditions: for Km: whole cell suspension, pH 7.0, 65° C.
Experimental: The cells are shaken at room temperature for about 5 minutes, and then harvested by centrifugation at 6000 g for 20 minutes in an MSE "Hi Spin 21" centrifuge prior to washing with buffer. […] The relation of Harris and Kornberg (Proc. Roy. Soc. Lond. B. 1972, 182, 159) is used to determine the cell density, 0.33 mg. dry wt. of B. stearothermophilus corresponding to an absorbance of 1.0 at 680 n.m. The assay used is based on that of Lederberg (J. […] Assays are carried out at incubation temperature of 65° C. and after the appropriate time interval the reactions are halted by addition of 3 ml aliquots of 0.5 M sodium bicarbonate to each reaction mixture and immediate cooling in an ice bath. The absorbance of the resultant solutions is measured at 410 nm using a Perkin-Elmer 124 double beam spectrophotometer. In the case of whole cell suspensions the assay tubes are centrifuged and in the case of the immobilised cells the mixtures are filtered, to remove cells and polyacrylamide gel respectively prior to measurement of the absorbance. […] The reaction mixtures are incubated for 15 minutes at 65° C., reactions are halted by addition of 4.2% perchloric acid and the solutions are centrifuged. Aliquots of the supernatant solutions are assayed for glucose or galactose. Glucose is estimated by a modification of the method of Trinder (Ann. Clin. […] Ltd.), 0.15 ml peroxidase (Boehringer Corp. Ltd.), 100 mg of 4-aminophenazone and 300 mg of sodium azide) followed by incubation at 37° C. for 10 minutes and absorbance measurement at 515 nm. […] Ltd.) is added, the solutions incubated at 37° C. for 30 minutes and the absorbance again measured at 340 nm.

[2] = system: β-galactosidase of Bacillus stearothermophilus HRI strains, entrapped whole cell preparation; experiment: β-galactosidase assay, polyacrylamide gel entrapped (immobilised) whole cell preparation, ONPG or lactose as substrate; conditions: for Km: entrapped whole cell preparation, pH 7.0, 65° C.
Experimental: Washed cells which have been toluene treated, as above, are resuspended in an equal volume of 50 mM sodium phosphate buffer, pH 7.0, containing acrylamide (200 g/l) and NN'-methylenebisacrylamide (20 g/l). Ammonium persulphate (2 […]) are added to this suspension which is then allowed to gel, and the gel is disrupted by forcing through a wire mesh, as described by Hjerten (Arch. Biochem. Biophys. […] The disrupted gel is freeze-dried to provide a stock of enzymatically active immobilised whole cell preparation. The assay used is based on that of Lederberg (J. […] Assays are carried out at incubation temperature of 65° C. and after the appropriate time interval the reactions are halted by addition of 3 ml aliquots of 0.5 M sodium bicarbonate to each reaction mixture and immediate cooling in an ice bath. The absorbance of the resultant solutions is measured at 410 nm using a Perkin-Elmer 124 double beam spectrophotometer. In the case of whole cell suspensions the assay tubes are centrifuged and in the case of the immobilised cells the mixtures are filtered, to remove cells and polyacrylamide gel respectively prior to measurement of the absorbance. […] The reaction mixtures are incubated for 15 minutes at 65° C., reactions are halted by addition of 4.2% perchloric acid and the solutions are centrifuged. Aliquots of the supernatant solutions are assayed for glucose or galactose. Glucose is estimated by a modification of the method of Trinder (Ann. Clin. […] Ltd.), 0.15 ml peroxidase (Boehringer Corp. Ltd.), 100 mg of 4-aminophenazone and 300 mg of sodium azide) followed by incubation at 37° C. for 10 minutes and absorbance measurement at 515 nm. […] Ltd.) is added, the solutions incubated at 37° C. for 30 minutes and the absorbance again measured at 340 nm.

[3] = system: β-galactosidase of Bacillus stearothermophilus HRI strains (HRI enzyme), purified enzyme; experiment: β-galactosidase assay, purified enzyme, ONPG or lactose as substrate
Experimental: The assay used is based on that of Lederberg (J. Bacteriol. 1950, 60, 381), using an assay mixture comprising 2.8 ml of 50 mM sodium phosphate, pH 7.0, and 0.1 ml of 68 mM ONPG. 0.1 ml aliquots of both purified enzyme and toluene-treated cell suspension, and 10 mg. amounts in 2.9 ml of buffer of freeze dried immobilised whole cell preparation are used for the assays. Assays are carried out at incubation temperature of 65° C. and after the appropriate time interval the reactions are halted by addition of 3 ml aliquots of 0.5 M sodium bicarbonate to each reaction mixture and immediate cooling in an ice bath. The absorbance of the resultant solutions is measured at 410 nm using a Perkin-Elmer 124 double beam spectrophotometer. In the case of whole cell suspensions the assay tubes are centrifuged and in the case of the immobilised cells the mixtures are filtered, to remove cells and polyacrylamide gel respectively prior to measurement of the absorbance.
The assay mixture used comprises 0.9 ml of 50 mM sodium phosphate buffer, pH 7.0, 4 ml of lactose (4 g in 100 ml of phosphate buffer), to which 0.1 ml of purified enzyme or cell suspension or 10 mg of gel entrapped cell preparation is added. The reaction mixtures are incubated for 15 minutes at 65° C., reactions are halted by addition of 4.2% perchloric acid and the solutions are centrifuged. Aliquots of the supernatant solutions are assayed for glucose or galactose.
Glucose is estimated by a modification of the method of Trinder (Ann. Clin. Biochem. 1969 6, 24). 1 ml aliquots of the supernatant solutions are assayed by addition to a mixture comprising 1 ml of 0.2% phenol and 3 ml of colour reagent (75 ml 4% (w/v) disodium hydrogen orthophosphate, 225 ml of water, 6 mg of glucose oxidase (Boehringer Corp. Ltd.), 0.15 ml peroxidase (Boehringer Corp. Ltd.), 100 mg of 4-aminophenazone and 300 mg of sodium azide) followed by incubation at 37° C. for 10 minutes and absorbance measurement at 515 nm.
Galactose is estimated as follows: a sample (e.g. 0.2 ml) containing not more than 200 μg/ml of galactose is mixed with 2.5 ml of buffer (4.8 g Na2 HPO4, 0.86g NaH2 PO4 and 0.2 g MgSO4 7H2 O per 200 ml of H2 O) and 0.1 ml of 10 mg/ml of NAD solution and the absorbance is measured at 340 nm. 0.02 ml of galactose dehydrogenase (Boehringer Corp. Ltd.) is added, the solutions incubated at 37° C. for 30 minutes and the absorbance again measured at 340 nm.

[4] = read-out: Michaelis constant (Km) with ONPG as substrate
[5] = read-out: Km with lactose as substrate

Structure (SMILES): N[C@@H](CS)C(=O)O [Cysteine, cysteine]
- % Activity ([1]; addition at 10 mM final, ONPG as substrate, whole cells, no addition = 100): 103.7%
- % Activity ([2]; addition at 10 mM final, ONPG as substrate, immobilised whole cells, no addition = 100): 109.4%
- % Activity ([3]; addition at 10 mM final, ONPG as substrate, purified enzyme, no addition = 100): 98.1%

Structure (SMILES): O=[N+]([O-])c1ccccc1O[C@@H]1O[C@H](CO)[C@H](O)[C@H](O)[C@H]1O [ONPG, orthonitrophenyl-β-D-galactopyranoside, reference compound]
- Km [1, 4]: 380 µM
- Km [2, 4]: 260 µM
- Km ([3]; HRI enzyme, measured at 65° C., read-out: Michaelis constant (Km) for ONPG): 430 µM
- Km ([3]; purified enzyme, pH 7.0, 65° C., read-out: Michaelis constant (Km) with ONPG as substrate): 430 µM

Structure (SMILES): OC[C@H]1O[C@@H](O[C@H]2[C@H](O)[C@@H](O)C(O)O[C@@H]2CO)[C@H](O)[C@@H](O)[C@H]1O (some centres unmarked) [lactose]
- Km [1, 5]: 11800 µM
- Km [2, 5]: 9520 µM
- Km ([3]; HRI enzyme, measured at 65° C., read-out: Michaelis constant (Km) for lactose): 2100 µM
- Km ([3]; purified enzyme extract, pH 7.0, 65° C., read-out: Km with lactose as substrate): 2060 µM
